Test results as given in PubChem BioAssay AID250 (DTP/NCI, 2004).
Where “and” joins values, the source holds several entries; their conditions need not be identical. Equal entries are not always repeated. Toxic doses and inconclusive results are not listed.

Tested on: BDF1 mice, L1210 leukemia sc, survival T/C
Assay: NCI In Vivo Anticancer Drug Screen. Data for tumor model L1210 Leukemia (subcutaneous) in B6D2F1 (BDF1) mice
Details: endpoint: median survival time, higher = longer survival
Procedure, shortened: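 Antitumor activity is assessed in mice with transplanted tumors by comparing the treated group (T) with the vehicle control group (C).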

[1] = dose: 65.0 mg/kg/injection, schedule: Q01DX Z (sc), vehicle: methylcellulose (MC)
[2] = dose: 108.0 mg/kg/injection, schedule: Q01DX Z (sc), vehicle: methylcellulose (MC)
[3] = dose: 180.0 mg/kg/injection, schedule: Q01DX Z (sc), vehicle: methylcellulose (MC)
[4] = dose: 300.0 mg/kg/injection, schedule: Q01DX Z (sc), vehicle: methylcellulose (MC)
[5] = dose: 500.0 mg/kg/injection, schedule: Q01DX Z (sc), vehicle: methylcellulose (MC)
[6] = dose: 3.0 mg/kg/injection, schedule: Q01DX Z (sc), vehicle: saline
[7] = dose: 5.0 mg/kg/injection, schedule: Q01DX Z (sc), vehicle: saline
[8] = dose: 8.4 mg/kg/injection, schedule: Q01DX Z (sc), vehicle: saline
[9] = dose: 14.0 mg/kg/injection, schedule: Q01DX Z (sc), vehicle: saline
[10] = dose: 23.0 mg/kg/injection, schedule: Q01DX Z (sc), vehicle: saline
[11] = dose: 39.0 mg/kg/injection, schedule: Q01DX Z (sc), vehicle: saline
[12] = dose: 65.0 mg/kg/injection, schedule: Q01DX Z (sc), vehicle: saline
[13] = dose: 108.0 mg/kg/injection, schedule: Q01DX Z (sc), vehicle: saline
[14] = dose: 180.0 mg/kg/injection, schedule: Q01DX Z (sc), vehicle: saline
[15] = dose: 23.0 mg/kg/injection, schedule: Q01DX Z (sc), vehicle: methylcellulose (MC)
[16] = dose: 39.0 mg/kg/injection, schedule: Q01DX Z (sc), vehicle: methylcellulose (MC)

C[C@]12CCC(=O)C=C1CC[C@@H]1[C@@H]2[C@@H](O)C[C@@]2(C)[C@H]1CC[C@]2(O)C(=O)CO
T/C [1]: 100 % of control
T/C [2]: 100 % of control
T/C [3]: 100 % of control
T/C [4]: 100 % of control
T/C [5]: 100 % of control

Nc1ccc(O)cc1
T/C (dose: 130.0 mg/kg/injection, schedule: Q01DX Z (sc), vehicle: other): 95 % of control
T/C (dose: 216.0 mg/kg/injection, schedule: Q01DX Z (sc), vehicle: other): 116 % of control
T/C [4]: 112 % of control
T/C [5]: 112 % of control
T/C (dose: 600.0 mg/kg/injection, schedule: Q01DX Z (sc), vehicle: other): 87 % of control

CCC(=O)NC1=C(N2CC2)C(=O)C(NC(=O)CC)=C(N2CC2)C1=O
T/C (dose: 1.08 mg/kg/injection, schedule: Q01DX Z (sc), vehicle: methylcellulose (MC)): 110 % of control
T/C (dose: 1.8 mg/kg/injection, schedule: Q01DX Z (sc), vehicle: methylcellulose (MC)): 110 % of control

C[n+]1cccc2cc(NC(=O)c3ccc(C(=O)Nc4ccc5c(ccc[n+]5C)c4)cc3)ccc21
T/C [6]: 100 % of control
T/C [7]: 100 % of control
T/C [8]: 100 % of control
T/C [9]: 105 % of control
T/C [10]: 100 % of control
T/C [11]: 233 % of control
T/C [12]: 172 % of control
T/C [13]: 205 % of control
T/C [14]: 194 % of control

O=C(Nc1ccc(C2=NCCN2)cc1)c1ccc(C(=O)Nc2ccc(C3=NCCN3)cc2)cc1
T/C [6]: 100 % of control
T/C [7]: 100 % of control and 104 % of control
T/C [8]: 109 % of control
T/C [9]: 104 % of control
T/C (dose: 23.0 mg/kg/injection, schedule: Q01DX Z (ip), vehicle: water): 100 % of control
T/C [10]: 104 % of control and 109 % of control
T/C (dose: 39.0 mg/kg/injection, schedule: Q01DX Z (ip), vehicle: water): 100 % of control
T/C [11]: 100 % of control
T/C (dose: 39.0 mg/kg/injection, schedule: Q01DX Z (sc), vehicle: water): 100 % of control
T/C (dose: 65.0 mg/kg/injection, schedule: Q01DX Z (ip), vehicle: water): 110 % of control
T/C [12]: 100 % of control and 104 % of control
T/C [13]: 100 % of control and 104 % of control
T/C (dose: 180.0 mg/kg/injection, schedule: Q01DX Z (ip), vehicle: water): 115 % of control
T/C [14]: 104 % of control
T/C (dose: 200.0 mg/kg/injection, schedule: Q01DX Z (sc), vehicle: water): 110 % of control and 100 % of control
T/C (dose: 300.0 mg/kg/injection, schedule: Q01DX Z (ip), vehicle: water): 185 % of control
T/C (dose: 300.0 mg/kg/injection, schedule: Q01DX Z (sc), vehicle: saline): 104 % of control
T/C (dose: 300.0 mg/kg/injection, schedule: Q01DX Z (sc), vehicle: water): 100 % of control
T/C (dose: 400.0 mg/kg/injection, schedule: Q01DX Z (sc), vehicle: water): 205 % of control and 105 % of control
T/C (dose: 800.0 mg/kg/injection, schedule: Q01DX Z (sc), vehicle: water): 170 % of control and 220 % of control

CC[C@H]1CN2CCc3cc(OC)c(OC)cc3[C@@H]2C[C@@H]1C[C@H]1NCCc2cc(OC)c(OC)cc21
T/C (dose: 0.39 mg/kg/injection, schedule: Q03HX003 (sc), vehicle: saline): 107 % of control
T/C (dose: 0.65 mg/kg/injection, schedule: Q03HX003 (sc), vehicle: saline): 92 % of control
T/C (dose: 1.08 mg/kg/injection, schedule: Q03HX003 (sc), vehicle: saline): 100 % of control
T/C (dose: 1.8 mg/kg/injection, schedule: Q01DX009 (sc), vehicle: saline): 100 % of control
T/C (dose: 1.8 mg/kg/injection, schedule: Q03HX003 (sc), vehicle: saline): 114 % of control
T/C (dose: 3.0 mg/kg/injection, schedule: Q01DX009 (sc), vehicle: saline): 103 % of control
T/C (dose: 5.0 mg/kg/injection, schedule: Q04DX003 (sc), vehicle: saline): 96 % of control
T/C (dose: 8.4 mg/kg/injection, schedule: Q04DX003 (sc), vehicle: saline): 107 % of control
T/C (dose: 16.0 mg/kg/injection, schedule: Q01DX001 (ip), vehicle: acid diluted with saline): 124 % of control

CN1c2c(nc(N)[nH]c2=O)NCC1CCNc1ccc(C(=O)NC(CCC(=O)O)C(=O)O)cc1 (stereo unspecified)
T/C (dose: 6.25 mg/kg/injection, schedule: Q01DX012 (ip), vehicle: other): 100 % of control
T/C (dose: 12.5 mg/kg/injection, schedule: Q01DX012 (ip), vehicle: other): 111 % of control
T/C (dose: 25.0 mg/kg/injection, schedule: Q01DX012 (ip), vehicle: other): 122 % of control
T/C (dose: 50.0 mg/kg/injection, schedule: Q01DX012 (ip), vehicle: other): 122 % of control

N=C(N)SCc1c2ccccc2c(CSC(=N)N)c2ccccc12
T/C (dose: 25.0 mg/kg/injection, schedule: Q01DX009 (ip), vehicle: steriod suspending solution): 110 % of control
T/C (dose: 50.0 mg/kg/injection, schedule: Q01DX009 (ip), vehicle: steriod suspending solution): 110 % of control
T/C (dose: 50.0 mg/kg/injection, schedule: Q01DX009 (sc), vehicle: steriod suspending solution): 120 % of control
T/C (dose: 50.0 mg/kg/injection, schedule: Q04DX003 (ip), vehicle: steriod suspending solution): 100 % of control
T/C (dose: 62.5 mg/kg/injection, schedule: Q01DX001 (ip), vehicle: steriod suspending solution): 100 % of control
T/C (dose: 100.0 mg/kg/injection, schedule: Q04DX003 (ip), vehicle: steriod suspending solution): 110 % of control
T/C (dose: 100.0 mg/kg/injection, schedule: Q04DX003 (sc), vehicle: steriod suspending solution): 100 % of control
T/C (dose: 125.0 mg/kg/injection, schedule: Q01DX001 (ip), vehicle: steriod suspending solution): 110 % of control
T/C (dose: 125.0 mg/kg/injection, schedule: Q01DX001 (sc), vehicle: steriod suspending solution): 110 % of control
T/C (dose: 200.0 mg/kg/injection, schedule: Q01DX009 (sc), vehicle: steriod suspending solution): 120 % of control
T/C (dose: 200.0 mg/kg/injection, schedule: Q04DX003 (sc), vehicle: steriod suspending solution): 105 % of control
T/C (dose: 250.0 mg/kg/injection, schedule: Q01DX001 (ip), vehicle: steriod suspending solution): 110 % of control
T/C (dose: 400.0 mg/kg/injection, schedule: Q01DX009 (sc), vehicle: steriod suspending solution): 110 % of control
T/C (dose: 400.0 mg/kg/injection, schedule: Q04DX003 (sc), vehicle: steriod suspending solution): 110 % of control
T/C (dose: 500.0 mg/kg/injection, schedule: Q01DX001 (sc), vehicle: steriod suspending solution): 105 % of control
T/C (dose: 800.0 mg/kg/injection, schedule: Q01DX009 (sc), vehicle: steriod suspending solution): 110 % of control
T/C (dose: 800.0 mg/kg/injection, schedule: Q04DX003 (sc), vehicle: steriod suspending solution): 100 % of control
T/C (dose: 1000.0 mg/kg/injection, schedule: Q01DX001 (sc), vehicle: steriod suspending solution): 110 % of control
T/C (dose: 2000.0 mg/kg/injection, schedule: Q01DX001 (sc), vehicle: steriod suspending solution): 100 % of control

C[n+]1c2ccccc2nc2c(N)cc(N)cc21
T/C (dose: 1.8 mg/kg/injection, schedule: Q01DX Z (sc), vehicle: saline): 100 % of control
T/C [6]: 100 % of control
T/C [7]: 100 % of control
T/C [8]: 100 % of control
T/C [9]: 100 % of control
T/C [15]: 105 % of control
T/C [10]: 111 % of control
T/C [16]: 105 % of control
T/C [11]: 111 % of control
T/C [1]: 105 % of control

O=P(N1CCOCC1)(N1CC1)N1CC1
T/C [7]: 96 % of control and 110 % of control
T/C [8]: 100 % of control and 110 % of control
T/C [10]: 160 % of control and 164 % of control
T/C [12]: 112 % of control

CS(=O)(=O)OCC(O)C(O)C(O)C(O)COS(C)(=O)=O (stereo unspecified)
T/C (dose: 8.4 mg/kg/injection, schedule: Q01DX Z (sc), vehicle: methylcellulose (MC)): 103 % of control
T/C (dose: 14.0 mg/kg/injection, schedule: Q01DX Z (sc), vehicle: methylcellulose (MC)): 100 % of control
T/C [15]: 96 % of control
T/C [16]: 100 % of control
T/C [1]: 100 % of control
T/C [2]: 100 % of control
T/C [3]: 103 % of control
T/C [4]: 107 % of control
T/C [5]: 103 % of control
